Data published in article PMC7380166, “How to Study the Metabolism of New Psychoactive Substances for the Purpose of Toxicological Screenings—A Follow-Up Study Comparing Pooled Human Liver S9, HepaRG Cells, and Zebrafish Larvae” (Frontiers in Chemistry, 2020).
Read-outs that look alike come from different tables or passages of the source.

Experiments:
[1] = cited from earlier work
[2] = after subcutaneous administration of 1P-LSD to rats; ref Halberstadt et al., [2019]; cited from earlier work
[3] = ref Wagmann et al., cited from earlier work; for Detection in pHLS9 [25 µM]: n = 2, according to literature; for Number of phase I metabolites detected, pHLS9 [25 μM] / Number of phase II metabolites detected, pHLS9 [25 μM]: [2019b]
zebrafish larvae [4] = assay: Zebrafish larvae exposure, metabolite identification by LC-HRMS/MS; details: for Absolute peak area, Zebrafish larvae [100 µM]: 100 µM parent NPS in medium, larvae 4 dpf, larvae extract, one replicate of n = 3, n.d. = not detected; for Absolute peak area, Zebrafish larvae [100 µM] / Number of phase I metabolites detected, Zebrafish larvae / Number of phase II metabolites detected, Zebrafish larvae: 24 h; for Number of phase I metabolites detected, Zebrafish larvae / Number of phase II metabolites detected, Zebrafish larvae: 100 μM in medium; for Relative number of matches with the four most abundant signals in human plasma, Zebrafish larvae / Relative number of matches with the four most abundant signals in human urine, Zebrafish larvae: larvae exposed to 100 μM, human data from Wagmann et al., [2019b]
HepaRG cells = assay: Incubations with HepaRG cells, metabolite identification by LC-HRMS/MS; assay type: in vitro ADME, human; details: for Absolute peak area, HepaRG [25 μM]: 25 μM parent NPS; for Absolute peak area, HepaRG [25 μM] / Absolute peak area, HepaRG [250 μM] / Number of phase I metabolites detected, HepaRG [25 μM] / Number of phase II metabolites detected, HepaRG [25 μM] / Number of phase I metabolites detected, HepaRG [250 μM] / Number of phase II metabolites detected, HepaRG [250 μM]: 24 h; for Absolute peak area, HepaRG [25 μM] / Absolute peak area, HepaRG [250 μM]: cell culture medium, one replicate of n = 3, n.d. = not detected; for Absolute peak area, HepaRG [250 μM]: 250 μM parent NPS; for Relative number of matches with the four most abundant signals in human plasma, HepaRG [25 μM] / Relative number of matches with the four most abundant signals in human plasma, HepaRG [250 μM] / Relative number of matches with the four most abundant signals in human urine, HepaRG [25 μM] / Relative number of matches with the four most abundant signals in human urine, HepaRG [250 μM]: human data for ephylone and 4F-PHP from Wagmann et al., [2019b]
zebrafish larvae [5] = assay: In vivo maximum-tolerated concentration (MTC) study in zebrafish larvae; parameters: species or system zebrafish (Danio rerio); details: for Survival rate / Survival rates for all tested concentrations / Malformations: larvae 4 dpf; for Survival rate: 24-h treatment, fifteen larvae; for Survival rates for all tested concentrations: 0.01 to 100 μM; for Survival rates for all tested concentrations / Malformations: 24 h; for Concentration considered non-toxic for zebrafish larvae (4 dpf): 24 h exposure via medium; for Malformations: up to 100 μM
Experimental: Internal protocols based on published standard methods (Westerfield, [2007]) were used to perform zebrafish husbandry and the maximum-tolerated concentration (MTC) testing was based on a previous study (Richter et al., [2019a]). Danieau's medium [17 mM NaCl, 2 mM KCl, 0.12 mM MgSO4, 1.8 mM Ca(NO3)2, 1.5 mM HEPES, pH 7.1–7.3, and 1.2 μM methylene blue] at 28°C was used to raise zebrafish larvae of the AB wild-type strain. For MTC testing, 96-well plates were used with 100 μl of medium and one larva per well. Drug exposition was started 4 dpf using 0, 0.01, 0.1, 1, 10, 50, or 100 μM final concentrations of 3,4-DMA-NBOMe, ephylone, 4F-MDMB-BINACA, 4F-PHP, or 1P-LSD, respectively. The drug exposure in the incubator at 28°C lasted 24 h. The final DMSO concentration was 1% (v/v) for all experiments. Monitoring of the larvae was done using a LEICA M205 FA stereo microscope (Leica Mikrosysteme Vertrieb GmbH, Wetzlar, Germany) to detect developmental defects and/or decreased survival rates. Fifteen larvae were used for each experiment.

monooxygenases = details: initial monooxygenases activity screenings described elsewhere; ref Caspar et al., [2018a]; Wagmann et al., [2019b],[c]; cited from earlier work
[6] = Incubations with pooled human liver S9 fraction (pHLS9), metabolite identification by LC-HRMS/MS; assay type: in vitro ADME; details: human data for ephylone and 4F-PHP from Wagmann et al., [2019b]
Experimental: According to published procedures (Richter et al., [2017b], [2019b]; Caspar et al., [2018b]; Wagmann et al., [2019b],[c]), the final incubation volume per reaction tube was 150 μl, with a final protein concentration of 2 mg/ml. The given concentrations represent final concentrations. A preincubation for 10 min at 37°C with UGT reaction mixture solution B (containing alamethicin, 25 μg/ml), MgCl2 (2.5 mM), NADP^+ (0.6 mM), isocitrate (2.5 mM), isocitrate dehydrogenase (0.8 U/ml), superoxide dismutase (100 U/ml), acetyl coenzyme A (0.1 mM), phosphate buffer (90 mM, pH 7.4), and pHLS9 (2 mg/ml) was done. Afterwards, UGT reaction mixture solution A (containing UDP glucuronic acid, 2.5 mM), PAPS (40 μM), SAM (1.2 mM), dithiothreitol (1 mM), and glutathione (10 mM) were added, as well as 25 μM 4F-MDMB-BINACA to start the reactions. The mixture was incubated for 360 min. Total amount of organic solvent in incubation mixtures was <2% (Chauret et al., [1998]). After 60 min, an aliquot of the reaction mixture (60 μl) was transferred in another reaction tube containing 20 μl of ice-cold acetonitrile to terminate the reactions. The remaining aliquot (90 μl) was incubated for an additional 300 min, and then the reactions were stopped by adding 30 μl of ice-cold acetonitrile. Thereafter, the reaction tubes were cooled at −20°C for 30 min prior to centrifugation at 18,407 × g for 2 min. The supernatants (50 μl) were transferred into autosampler vials, and 1 μl was injected onto the LC-HRMS/MS system. Control samples without pHLS9 and blank samples without substrate were prepared to confirm the absence of non-metabolically formed and interfering compounds, respectively. All incubations were performed in duplicate.
According to a previous study (Richter et al., [2019a]), a Thermo Fisher Scientific (TF, Dreieich, Germany) Dionex UltiMate 3000 Rapid Separation (RS) UHPLC system with a quaternary UltiMate 3000 RS pump and an UltiMate 3000 RS autosampler controlled by the TF Chromeleon software version 6.8 was used. The LC system was coupled to an Orbitrap-based TF Q-Exactive Plus equipped with a heated electrospray ionization II (HESI-II) source. Calibration was done prior to analysis with a Positive Cal Mix (Supelco, Bellefonte, PA, USA) at a flow rate of 3 μl/min using a syringe pump. The conditions of the LC system were as follows: TF Accucore PhenylHexyl column (100 × 2.1 mm, 2.6 μm particle size); gradient elution with 2 mM ammonium formate solution containing 0.1% (v/v) formic acid (eluent A) and 2 mM ammonium formate solution in acetonitrile/methanol (50:50, v/v) containing 0.1% (v/v) formic acid, and 1% (v/v) water (eluent B). […] The following gradient was used: 0–1.0 min hold 1% B, 1–10 min to 99% B, 10–11.5 min hold 99% B, 11.5–13.5 min hold 1% B. The HESI-II source conditions were as follows: ionization mode, positive; heater temperature, 320°C; ion transfer capillary temperature, 320°C; sheath gas, 60 arbitrary units (AU); auxiliary gas, 10 AU; spray voltage, 4.00 kV; and S-lens RF level, 50.0. Mass spectrometry experiments were performed using high-resolution (HR) full scan mode and a targeted MS^2 mode with an inclusion list for each NPS. The inclusion list contained m/z values of metabolites, which were likely to be formed for example hydroxy, oxo, carboxy, dealkyl, demethylenylated, and defluorinated metabolites (phase I) as well as sulfates and glucuronides (phase II) and combinations of them. Full scan settings were as follows: resolution, 35,000; automatic gain control (AGC) target, 3e6; maximum injection time (IT), 120 ms; scan ranges, 3,4-DMA-NBOMe m/z 100–700, ephylone m/z 200–600, 4F-MDMB-BINACA m/z 150–700, 4F-PHP m/z 200–600, and 1P-LSD m/z 250–700. The settings for the targeted MS^2 mode with the respective inclusion lists were as follows: resolution, 17,500; AGC target, 2e5; maximum IT, 250 ms; loop count, 5; isolation window, 1.0 m/z; stepped normalized collision energy (NCE), 17.5, 35, 52.5%; pick others, enabled. […]

| SMILES | Absolute peak area, Zebrafish larvae [100 µM] (zebrafish larvae [4]) | Absolute peak area, HepaRG [25 μM] (HepaRG cells) | Absolute peak area, HepaRG [250 μM] (HepaRG cells) | Number of phase I metabolites detected, pHLS9 [25 μM] [3] | Number of phase II metabolites detected, pHLS9 [25 μM] [3] | Survival rate (zebrafish larvae [5]; 0.01 μM) | Survival rate (zebrafish larvae [5]; 0.1 μM) | Survival rate (zebrafish larvae [5]; 1 μM) | Survival rate (zebrafish larvae [5]; 10 μM) | Survival rate (zebrafish larvae [5]; 50 μM) | Survival rate (zebrafish larvae [5]; 100 μM) | Survival rates for all tested concentrations (zebrafish larvae [5]) | Concentration considered non-toxic for zebrafish larvae (4 dpf) (zebrafish larvae [5]) | Malformations (zebrafish larvae [5]) | Number of phase I metabolites detected, Zebrafish larvae (zebrafish larvae [4]) | Number of phase II metabolites detected, Zebrafish larvae (zebrafish larvae [4]) | Relative number of matches with the four most abundant signals in human plasma, Zebrafish larvae (zebrafish larvae [4]) | Relative number of matches with the four most abundant signals in human urine, Zebrafish larvae (zebrafish larvae [4]) | Monooxygenases involved in metabolism (monooxygenases) | Relative number of matches with the four most abundant signals in human plasma, pHLS9 [25 μM] [6] | also measured |
| --- | --- | --- | --- | --- | --- | --- | --- | --- | --- | --- | --- | --- | --- | --- | --- | --- | --- | --- | --- | --- | --- |
| CCN(CC)C(=O)[C@@H]1C=C2c3cccc4[nH]cc(c34)C[C@H]2N(C)C1 [ML7, LSD] | 1.25E+09 | 8.59E+08 | 5.95E+09 | – | – | – | – | – | – | – | – | – | – | – | – | – | – | – | – | – | Detection in serum and urine samples of an intoxicated patient ([1]; after assumed consumption of a blotter containing 1P-LSD, ref Grumann et al., [2019]): able to find; Detection in rat plasma [2]: able to detect; Detection in pHLS9 [25 µM] ([3]; 1P-LSD and metabolites, 2019b): + |
| CCCC(NCC)C(=O)c1ccc2c(c1)OCO2 (stereo not shown) [Ephylone, N-ethylnorpentylone] | 3.57E+09 | 6.38E+08 | 3.94E+09 | 5 (Wagmann et al., [2019b]) | 8 (Wagmann et al., [2019b]) | 100% | 100% | 100% | 100% | 100% | 100% | 100% | 100 µM | no malformations | 5 | 4 | 100% | 100% | CYP1A2, CYP2B6, CYP2C19, and CYP3A4 | 100% | Signals with the highest abundance in human plasma and/or urine ([1]; human biosamples after intake of ephylone and 4F-PHP, ref Wagmann et al., [2019b]): highest ephylone-related signals; Detection in pHLS9 [25 µM] ([3]; ephylone and metabolites, 2019a): +; Relative number of matches with the four most abundant signals in human urine, pHLS9 [25 μM] [6]: 100%; Number of phase I metabolites detected, HepaRG [25 μM] (HepaRG cells): 2; Number of phase II metabolites detected, HepaRG [25 μM] (HepaRG cells): 4; Number of phase I metabolites detected, HepaRG [250 μM] (HepaRG cells): 4; Number of phase II metabolites detected, HepaRG [250 μM] (HepaRG cells): 6; Relative number of matches with the four most abundant signals in human plasma, HepaRG [25 μM] (HepaRG cells): 75%; Relative number of matches with the four most abundant signals in human plasma, HepaRG [250 μM] (HepaRG cells): 100%; Relative number of matches with the four most abundant signals in human urine, HepaRG [25 μM] (HepaRG cells): 75%; Relative number of matches with the four most abundant signals in human urine, HepaRG [250 μM] (HepaRG cells): 100% |
| CCCCC(C(=O)c1ccc(F)cc1)N1CCCC1 (stereo not drawn) [Metabolite 4F-PHP, 4-fluoro-alpha-pyrrolidinohexiophenone] | 4.36E+09 | 6.65E+08 | 5.45E+09 | 6 (Wagmann et al., [2019b]) | 2 (Wagmann et al., [2019b]) | 100% | 100% | 100% | 100% | 100% | 100% | 100% | 100 µM | no malformations | 8 | 3 | 100% | 75% | CYP1A2, CYP2B6, CYP2C19, and CYP3A4 | 75% | Detection in pHLS9 [25 µM] ([3]; 4F-PHP and metabolites, 2019a): +; Relative number of matches with the four most abundant signals in human urine, pHLS9 [25 μM] [6]: 75%; Number of phase I metabolites detected, HepaRG [25 μM] (HepaRG cells): 5; Number of phase II metabolites detected, HepaRG [25 μM] (HepaRG cells): 0; Number of phase I metabolites detected, HepaRG [250 μM] (HepaRG cells): 6; Number of phase II metabolites detected, HepaRG [250 μM] (HepaRG cells): 1; Relative number of matches with the four most abundant signals in human plasma, HepaRG [25 μM] (HepaRG cells): 50%; Relative number of matches with the four most abundant signals in human plasma, HepaRG [250 μM] (HepaRG cells): 50%; Relative number of matches with the four most abundant signals in human urine, HepaRG [25 μM] (HepaRG cells): 25%; Relative number of matches with the four most abundant signals in human urine, HepaRG [250 μM] (HepaRG cells): 50% |
